Each structure is given as a SMILES string.

This experiment has as its target T1, human olfactory receptor 1A2 (hOR1A2) (Homo sapiens, UniProt Q9Y585).
T1 construct: gene OR1A2; hOR1A2 expressed in E. coli, purified and embedded in MSP1E3D1 nanodiscs
T1 sequence (Q9Y585 1-309): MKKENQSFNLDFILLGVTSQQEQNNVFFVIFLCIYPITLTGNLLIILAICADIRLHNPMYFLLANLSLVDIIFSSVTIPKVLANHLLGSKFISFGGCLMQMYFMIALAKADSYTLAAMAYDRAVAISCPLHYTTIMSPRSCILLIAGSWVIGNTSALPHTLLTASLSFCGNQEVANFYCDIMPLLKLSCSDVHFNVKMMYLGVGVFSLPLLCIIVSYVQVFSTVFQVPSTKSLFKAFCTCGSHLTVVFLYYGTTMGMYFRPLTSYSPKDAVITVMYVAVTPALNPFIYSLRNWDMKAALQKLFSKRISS
As to the kind of experiment: nanodisc-functionalized floating-electrode CNT-FET biosensor, equilibrium (association) constant from Hill-Langmuir fit; also HEK-293 luciferase assay (Kd […]). It counts as binding. Particulars: read-out: nanodisc-functionalized floating-electrode CNT-FET biosensor, equilibrium (assoc) (converted).

Regarding `CC(C)=CCCC(C)CCO` (stereo not shown) [citronellol], the Kd is 385 nM.
